Values joined by “and” are separate entries in the source; they are usually repeats but may differ in a detail not shown here. Identical values can stand only once.
Key:
[1] = tested on: CFBP1390 whole cell lysate; assay: Macroscopic levan synthesis by lysate on agar sucrose plate, CFBP1390; format: biochemical, P. syringae pv phaseolicola; conditions: 100 μM, 72 h
Experimental: (§1) To extract total protein, cell pellets were resuspended in 1 mL of ice-cold RIPA Buffer with Protease Inhibitors Cocktail, and cells were lysed by sonication using a Fisher Scientific Model 120 Sonic Dismembrator. The sonication step was carried out on ice with three pulses of 15 s at 30% amplitude, each followed by 30 s cooldown. Sonicated samples were cleared by centrifugation for 15 min at 15,000 × g at 4 °C. The pellet was discarded, while the supernatant was collected and stored at −20 °C for further analysis. The hydrolysis enzymatic reaction was carried out as previously described with 60 mM sucrose and 7 μL of cell lysate for 1.5 h. After the samples were boiled, glucose was quantified using the DNS method. For macroscopic evaluation of levan synthesis inhibition, a 10 μL drop of lysates was applied on an agar sucrose (5% w/v) plate alone or with 100 μM TPIS (3). A picture was taken after 72 h at 4 °C.

[2] = tested on: CFBP8414 whole cell lysate; assay: Macroscopic levan synthesis by lysate on agar sucrose plate, CFBP8414; format: biochemical, P. syringae pv actinidiae biovar 5; conditions: 100 μM, 72 h
Experimental: as §1

[3] = tested on: CFBP8414 whole cell lysate; assay: Sucrose hydrolysis by whole cell lysate, CFBP8414; format: biochemical, P. syringae pv actinidiae biovar 5; conditions: 100 μM, 60 mM sucrose
Experimental: (§2) The strains CFBP8414 (P. syringae pv actinidiae biovar 5) and CFBP1390 (P. syringae pv phaseolicola) were purchased from the CIRM-CFBP French Collection for Plant Associated Bacteria, while KL103 (P. syringae pv actinidiae biovar 3) was isolated in Tuscany in 2015, as reported by Campigli et al., 2023.
(§3) Bacterial cells were grown in 50 mL of Nutrient Sucrose (5% w/v) for 48 h at 180 rpm at 27 °C. Cell suspensions were diluted to an A 600 of 1 (10^7 cfu/mL) in water, and 1 mL aliquots were centrifuged for 5 min at 15,000 × g at 4 °C. The supernatant was discarded, while the pellet was stored at −20 °C for further analysis.
as §1, with “For macroscopic evaluation of levan synthesis inhibition, a 10 μL drop of lysates was applied on an agar sucrose (5% w/v) plate alone or with 100 μM TPIS (3). A picture was taken after 72 h at 4 °C.” left out

Lscγ [4] = target: T1, Lscγ (Pseudomonas syringae pv. actinidiae, UniProt A0A2V0R8Y2); assay: Levan synthesis turbidity assay with Lscγ; format: biochemical, Pseudomonas syringae pv actinidiae biovar 3 (Psa3)
T1 construct: 6His-tag (TEV-cleavable) (cleaved yes); made in house; host or cells: E. coli BL21 (DE3)
T1 sequence (A0A2V0R8Y2 whole entry): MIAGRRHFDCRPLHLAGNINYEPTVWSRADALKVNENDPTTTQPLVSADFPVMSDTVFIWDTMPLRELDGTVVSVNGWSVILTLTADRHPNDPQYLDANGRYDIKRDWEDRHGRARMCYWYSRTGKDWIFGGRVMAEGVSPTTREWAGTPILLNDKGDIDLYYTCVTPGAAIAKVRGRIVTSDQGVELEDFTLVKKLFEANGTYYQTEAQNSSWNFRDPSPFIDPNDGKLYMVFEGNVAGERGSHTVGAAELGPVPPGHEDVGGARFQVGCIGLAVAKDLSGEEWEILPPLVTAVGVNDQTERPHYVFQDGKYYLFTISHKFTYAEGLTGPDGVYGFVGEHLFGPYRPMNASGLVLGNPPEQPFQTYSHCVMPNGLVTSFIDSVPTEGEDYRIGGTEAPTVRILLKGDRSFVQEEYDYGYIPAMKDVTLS
Experimental: (§4) Inhibition of levan synthesis was monitored using a turbidity assay on a microtiter plate as reported by Luti et al. 2021 with slight modifications. The reaction was performed at 37 °C in 200 μL of 50 mM sodium acetate buffer at pH 5.0 containing 60 mM sucrose and 10 μg of purified Lscγ protein per mL of reaction mixture. The turbidity of the samples at 400 nm was recorded every 5 min using a BioTek Synergy H1 Hybrid Multimode Reader. The percent inhibition was determined at 60 min of incubation, at the maximum absorbance, and was determined as defined in the previous section, Sucrose Hydrolysis Assay. For the IC50 determinations, we used a 0–200 μM TPIS (3) concentration and defined the activity as previously reported. For macroscopic evaluation of levan synthesis inhibition, a 10 μL drop of 1 μg/μL Lscγ was applied on an agar sucrose (5% w/v) plate alone or with 100 μM TPIS (3). A picture was taken after 24 h at 4 °C.

KL103 whole cell lysate [5] = assay: Macroscopic levan synthesis by lysate on agar sucrose plate, KL103; format: biochemical, P. syringae pv actinidiae biovar 3; conditions: 100 μM, 72 h
Experimental: as §1

[6] = tested on: CFBP1390 whole cell lysate; assay: Sucrose hydrolysis by whole cell lysate, CFBP1390; format: biochemical, P. syringae pv phaseolicola; conditions: 100 μM, 60 mM sucrose
Experimental: as §2, §3
as §1, with “For macroscopic evaluation of levan synthesis inhibition, a 10 μL drop of lysates was applied on an agar sucrose (5% w/v) plate alone or with 100 μM TPIS (3). A picture was taken after 72 h at 4 °C.” left out

Lscγ [7] = target: T1, Lscγ; assay: Macroscopic evaluation of levan synthesis by Lscγ on agar sucrose plate; format: biochemical, Pseudomonas syringae pv actinidiae biovar 3 (Psa3); conditions: 100 μM, 10 μL drop of 1 μg/μL Lscγ, 24 h
Experimental: as §4

Jack bean α-mannosidase = conditions: cited from earlier work
Lscγ [8] = target: T1, Lscγ; assay: Sucrose hydrolysis assay on recombinant Lscγ (DNS glucose quantification); format: biochemical, Pseudomonas syringae pv actinidiae biovar 3 (Psa3); conditions: for % Residual activity (sucrose hydrolysis), Lscγ: 100 μM iminosugar; for % Residual activity (sucrose hydrolysis), Lscγ / IC50: 60 mM sucrose
Experimental: (§5) Lscβ and Lscγ were produced and purified as reported by Luti et al. 2021. Briefly, the lscβ and lscγ genes of Psa3 KL103 were cloned in the pNIC28-Bsa4 plasmid and used to transform E. coli BL21 (DE3) cells (New England Biolabs). At A 600 (absorbance at 600 nm) = 0.6, protein expression was induced by 0.4 mM IPTG for 20 h at 18 °C. Then, cells were harvested by […], and recombinant proteins were purified using IMAC Sepharose High Performance (Ge Healthcare) charged with Ni^2+. Subsequently, the proteins were subjected to TEV (Tobacco Etch Virus protease) treatment to remove the 6His-tag and further purified by gel chromatography on a HiLoad 16/600 Superdex 200 pg column driven by an Akta Pure 25 L system (GE Healthcare, Waukesha, WI, USA). Pure proteins were stored in 10 mM Tris/HCl at pH 7.0 at −80 °C until further analysis.
(§6) The enzymatic assays to detect the inhibitory potential of the compounds on sucrose hydrolysis activity of Lscβ and Lscγ were performed according to Luti et al. 2021 in a total volume of 100 μL, using a Bis/Tris buffer (50 mM, pH 7.0). The experiments were performed at an enzyme concentration of 0.03 μg/μL with 60 mM sucrose and a final inhibitor concentration (compounds 1–4) of 100 μM, on a 10-min time frame. After the reactions were stopped, glucose concentration was measured using the DNS (3,5-dinitrosalicylic acid) method to determine spectrophotometrically the inhibitory activity of each compound. The enzymatic activity, measured as μmol/min·mL, was expressed as %residual enzymatic activity=[Ai/Ac]×100 , where A i is the absorbance of the samples with the inhibitors and A c is the absorbance of the control.
(§7) The inhibition levels of compounds 1–4 were analyzed by measuring their IC50. To quantify the IC50 values, we set up different enzymatic reactions at various concentrations of the inhibitor, and we monitored the effects of such concentrations on the enzymatic activity. The assay system was prepared as described above using a Bis/Tris buffer at pH 7.0 and 60 mM sucrose as the substrate. The inhibitor concentrations tested for both enzymes were 0, 0.01, 0.1, 0.5, 1, 10, 25, 50, 100, 200, 400, and 800 μM. Glucose released by the two enzymes was quantified using the DNS method and a microplate spectrophotometer. IC50 was defined as the concentration of a compound causing 50% inhibition, and it was calculated by drawing a dose–response graph for each compound using GraphPad Prism version 8.0 for Windows, GraphPad Software, San Diego, California, USA (www.graphpad.com). The response was expressed on the Y-axis as a percentage of enzymatic activity, and the […].
(§8) The inhibitory mechanism of TPIS (3) was determined by studying the dependence between the main kinetic parameters (K Mapp and V maxapp) and the inhibitor concentrations. Data obtained were fitted using the Michaelis–Menten equation and a nonlinear fitting software. Then, data were analyzed using the double reciprocal plot (Lineweaver–Burk method). Secondary plots were used to calculate the K i values by using GraphPad Prism version 8.0. In detail, the inhibitory mechanism of TPIS (3) was analyzed using 0, 25, 60, and 100 μM inhibitors for Lscβ and 0, 10, 25, and 100 μM for Lscγ. For each concentration, we set the sucrose concentration to 0, 10, 30, 50, 100, 200, 400, and 600 mM, and reactions were performed as previously described using an enzyme concentration of 0.02 μg/μL. After the reactions were stopped, glucose from enzymatic hydrolysis was quantified using the DNS method.

KL103 whole cell lysate [9] = assay: Sucrose hydrolysis by whole cell lysate, KL103; format: biochemical, P. syringae pv actinidiae biovar 3; conditions: 100 μM, 60 mM sucrose
Experimental: as §2, §3
as §1, with “For macroscopic evaluation of levan synthesis inhibition, a 10 μL drop of lysates was applied on an agar sucrose (5% w/v) plate alone or with 100 μM TPIS (3). A picture was taken after 72 h at 4 °C.” left out

Lscβ = target: T2, Lscβ (Pseudomonas syringae pv. actinidiae, UniProt A0A2V0R8Q9); assay: Sucrose hydrolysis assay on recombinant Lscβ (DNS glucose quantification); format: biochemical, Pseudomonas syringae pv actinidiae biovar 3 (Psa3); conditions: for % Residual activity (sucrose hydrolysis), Lscβ: 100 μM iminosugar; for % Residual activity (sucrose hydrolysis), Lscβ / IC50: 60 mM sucrose
T2 construct: 6His-tag (TEV-cleavable) (cleaved yes); made in house; host or cells: E. coli BL21 (DE3)
T2 sequence (A0A2V0R8Q9 whole entry): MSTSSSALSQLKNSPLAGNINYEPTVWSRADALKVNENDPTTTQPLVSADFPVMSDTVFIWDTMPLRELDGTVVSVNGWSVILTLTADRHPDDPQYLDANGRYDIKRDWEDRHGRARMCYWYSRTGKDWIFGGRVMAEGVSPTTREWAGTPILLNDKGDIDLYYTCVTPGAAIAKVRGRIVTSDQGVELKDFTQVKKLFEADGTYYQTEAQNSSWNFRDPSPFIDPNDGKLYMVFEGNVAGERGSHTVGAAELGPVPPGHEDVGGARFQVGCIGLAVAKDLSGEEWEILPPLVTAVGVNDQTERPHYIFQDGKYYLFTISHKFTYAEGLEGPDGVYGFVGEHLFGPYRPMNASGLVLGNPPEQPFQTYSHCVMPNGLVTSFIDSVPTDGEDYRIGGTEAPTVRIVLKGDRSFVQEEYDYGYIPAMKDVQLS
Experimental: as §5
as §6, with “The experiments were performed at an enzyme concentration of 0.03 μg/μL with 60 mM sucrose and a final inhibitor concentration (compounds 1–4) of 100 μM, on a 10-min time frame.” left out
as §7, §8

With OC[C@@H]1[C@@H](O)[C@H](O)CN1CCCCCCn1cc(COCC(COCc2cn(CCCCCCN3C[C@@H](O)[C@H](O)[C@H]3CO)nn2)(COCc2cn(CCCCCCN3C[C@@H](O)[C@H](O)[C@H]3CO)nn2)COCc2cn(CCCCCCN3C[C@@H](O)[C@H](O)[C@H]3CO)nn2)nn1 [Compound 3] the “macroscopic levan synthesis, CFBP1390 lysate” value [1] was “able to limit levan synthesis”, the “macroscopic levan synthesis, CFBP8414 lysate” value [2] was “able to limit levan synthesis” and the “residual sucrose hydrolysis activity, CFBP8414 lysate” value [3] was 44 ± 11%. For the same compound, the “residual polymerization activity (levan production), Lscγ” value (Lscγ [4]; 100 μM, pH 5.0, 60 min) was 46 ± 3%, the IC50 (Lscγ [4]; pH 5.0, 60 min of incubation, estimated, read-out: IC50, polymerization activity of Lscγ) was 37 µM and the “macroscopic levan synthesis, KL103 lysate” value (KL103 whole cell lysate [5]) was “able to limit levan synthesis”. For the same compound, the “residual sucrose hydrolysis activity, CFBP1390 lysate” value [6] was 55 ± 3%, the “macroscopic levan production by Lscγ on agar sucrose plate” value (Lscγ [7]) was “limits levan production” and the IC50 (Jack bean α-mannosidase; already demonstrated in earlier work) was 34 µM. For the same compound, the “rp/n, Jack bean α-mannosidase” value (Jack bean α-mannosidase; relative potency with respect to monovalent counterpart per active unit, earlier work) was 10, the “% Residual activity (sucrose hydrolysis), Lscγ” value (“% Residual activity … Lscγ” below) (Lscγ [8]; pH 7.0) was 36 ± 5% and the IC50 (Lscγ [8]; pH 7.0) was 60.9 µM. For the same compound, the “inhibition mechanism, Lscγ” value (Lscγ [8]; KMapp increases, Vmaxapp not affected, versus sucrose) was “competitive inhibitor”, the Ki (Lscγ [8]; secondary plot, pH 7.0, read-out: K i, sucrose hydrolysis, Lscγ) was 20 µM and the “residual sucrose hydrolysis activity, KL103 lysate” value (KL103 whole cell lysate [9]) was 54 ± 7%. For the same compound, the “% Residual activity (sucrose hydrolysis), Lscβ” value (“% Residual activity … Lscβ” below) (Lscβ; pH 7.0) was 49 ± 5%, the IC50 (Lscβ; pH 7.0) was 22 µM and 22.4 µM and the “inhibition mechanism, Lscβ” value (Lscβ; KMapp increases, Vmaxapp does not vary, versus sucrose) was “competitive inhibitor”. For the same compound, the Ki (Lscβ; secondary plot, pH 7.0, read-out: K i, sucrose hydrolysis, Lscβ) was 29 µM and the “rp/n (rp divided by valency), Lscβ” value (Lscβ; sucrose hydrolysis) was greater than 11.
In the case of OCCc1cn(CCCCCCN2C[C@@H](O)[C@H](O)[C@H]2CO)nn1 [Compound 4], the “% Residual activity … Lscγ” value (Lscγ [8]; pH 7.0) is reported as 126 ± 50%, the “% Residual activity … Lscγ” value (Lscγ [8]; pH 7.0, listed as PIS (4)) is reported as “does not inhibit” and the IC50 (Lscγ [8]; pH 7.0) is reported as greater than 1000 µM. The “% Residual activity … Lscβ” value (Lscβ; pH 7.0) was 93 ± 12%, the IC50 (Lscβ; pH 7.0) was greater than 1000 µM and the inhibition at 100 µM (Lscβ; pH 7, read-out: inhibitory activity on sucrose hydrolysis, Lscβ) was roughly 7%. For the same compound, the remaining activity at 1000 µM (Lscβ; read-out: residual activity at 1 mM, Lscβ) was 40%.
For OC[C@H]1NC[C@@H](O)[C@@H]1O [Compound 1, 1,4-dideoxy-1,4-imino-D-arabinitol], the “% Residual activity … Lscγ” value (Lscγ [8]; pH 7.0) was 101 ± 12%, the IC50 (Lscγ [8]; pH 7.0) was greater than 100 µM and the “% Residual activity … Lscβ” value (Lscβ; pH 7.0) was 103 ± 6%. The “% Residual activity … Lscβ” value (Lscβ; pH 7.0, listed as DAB-1 (1)) was “do not affect Lscβ activity at all” and the IC50 (Lscβ; pH 7.0) was greater than 100 µM.
With OC[C@H]1O[C@@](CO)(O[C@H]2O[C@H](CO)[C@@H](O)[C@H](O)[C@H]2O)[C@@H](O)[C@@H]1O [Sucrose] the “KMapp of Lscγ for sucrose” value (Lscγ [8]; substrate, pH 7.0) was “KMapp(mM) 59 ± 12” and the “KMapp of Lscβ for sucrose” value (Lscβ; substrate, pH 7.0) was “KMapp (mM) 57 ± 11”.
For OC[C@@H]1[C@@H](O)[C@H](O)CN1CCO[C@@H]1O[C@H](CO)[C@@H](O)[C@H](O)[C@H]1O [Compound 2], the “% Residual activity … Lscγ” value (Lscγ [8]; pH 7.0) was 85 ± 8%, the IC50 (Lscγ [8]; pH 7.0) was greater than 100 µM and the IC50 (Lscβ; pH 7.0) was greater than 100 µM.

Source: paper PMC12203577, “Molecular Basis of Pseudomonas syringae pv actinidiae Levansucrase Inhibition by a Multivalent Iminosugar” (Journal of Agricultural and Food Chemistry, 2025)
